Laboratory results published in publication PMC3528340 (Journal of the American Chemical Society, 2012).

Legend:
[1] = biological target: T1, EcLTA (E. coli L-Thr aldolase, EC 4.1.24) (Escherichia coli, UniProt P75823); experiment: aldehyde dehydrogenase-coupled retro-aldol assay, A340; format: biochemical; conditions: L-Thr only, no aldehyde acceptor
T1 sequence (P75823 1-333): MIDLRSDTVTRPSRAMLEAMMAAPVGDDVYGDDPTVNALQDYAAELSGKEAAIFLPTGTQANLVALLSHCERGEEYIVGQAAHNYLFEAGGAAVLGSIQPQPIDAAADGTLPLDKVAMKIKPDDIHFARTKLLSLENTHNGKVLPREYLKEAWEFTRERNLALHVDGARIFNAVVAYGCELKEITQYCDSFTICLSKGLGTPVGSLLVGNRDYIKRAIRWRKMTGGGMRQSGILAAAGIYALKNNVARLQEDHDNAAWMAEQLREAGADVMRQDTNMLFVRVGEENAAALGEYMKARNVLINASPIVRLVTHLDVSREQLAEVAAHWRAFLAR

EcGlyA (E. coli SHMT) = biological target: T2, EcGlyA (E. coli SHMT) (Escherichia coli, UniProt P0A825); experiment: as above; format: biochemical; conditions: L-Thr only, no aldehyde acceptor
T2 sequence (P0A825 1-417): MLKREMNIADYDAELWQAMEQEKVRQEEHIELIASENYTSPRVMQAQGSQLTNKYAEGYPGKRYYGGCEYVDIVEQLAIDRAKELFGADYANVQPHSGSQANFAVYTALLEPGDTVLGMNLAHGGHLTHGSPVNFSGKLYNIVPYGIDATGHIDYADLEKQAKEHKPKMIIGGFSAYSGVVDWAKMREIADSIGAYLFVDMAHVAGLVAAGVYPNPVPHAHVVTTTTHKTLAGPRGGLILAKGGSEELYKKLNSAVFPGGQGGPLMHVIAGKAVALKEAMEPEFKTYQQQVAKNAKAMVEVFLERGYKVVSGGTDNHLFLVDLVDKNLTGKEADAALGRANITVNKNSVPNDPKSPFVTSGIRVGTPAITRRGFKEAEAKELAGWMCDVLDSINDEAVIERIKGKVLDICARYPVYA

In the case of C[C@@H](O)[C@H](N)C(=O)O [L-Thr], the specific activity [1] was “EcLTA, and EcGlyA were shown to catalyze a retro-aldol-type reaction in the presence of only L-Thr” and the specific activity (EcGlyA (E. coli SHMT)) was “EcLTA, and EcGlyA were shown to catalyze a retro-aldol-type reaction in the presence of only L-Thr”.
